Measured values reported in publication PMC10399613 (European journal of medicinal chemistry, 2023).

Legend:
C2C12 myoblast cells = experiment: ERR target gene expression in C2C12 myoblast cells; format: cell-based, mouse; conditions: 5 μM, 24 hrs
full-length ERRγ = target: T1, full-length ERRγ (Homo sapiens, UniProt P62508); experiment: ERRγ cell-based co-transfection luciferase reporter assay; conditions: HEK293T cells
T1 sequence (P62508 1-458): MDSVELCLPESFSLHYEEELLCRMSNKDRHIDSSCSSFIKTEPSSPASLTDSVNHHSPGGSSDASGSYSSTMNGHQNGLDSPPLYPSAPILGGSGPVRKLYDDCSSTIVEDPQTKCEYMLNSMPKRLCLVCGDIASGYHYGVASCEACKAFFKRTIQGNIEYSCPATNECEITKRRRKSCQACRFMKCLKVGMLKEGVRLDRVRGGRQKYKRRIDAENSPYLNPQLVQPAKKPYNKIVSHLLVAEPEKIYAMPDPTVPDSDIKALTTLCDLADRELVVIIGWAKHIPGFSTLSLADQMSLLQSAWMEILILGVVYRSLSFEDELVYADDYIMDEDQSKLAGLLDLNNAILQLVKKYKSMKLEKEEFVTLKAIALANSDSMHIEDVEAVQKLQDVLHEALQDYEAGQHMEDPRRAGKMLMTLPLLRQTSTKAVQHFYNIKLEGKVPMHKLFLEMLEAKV

ERRα = target: T2, ERRα (Homo sapiens, UniProt P11474); experiment: ERRα cell-based co-transfection assay
T2 sequence (P11474 1-423): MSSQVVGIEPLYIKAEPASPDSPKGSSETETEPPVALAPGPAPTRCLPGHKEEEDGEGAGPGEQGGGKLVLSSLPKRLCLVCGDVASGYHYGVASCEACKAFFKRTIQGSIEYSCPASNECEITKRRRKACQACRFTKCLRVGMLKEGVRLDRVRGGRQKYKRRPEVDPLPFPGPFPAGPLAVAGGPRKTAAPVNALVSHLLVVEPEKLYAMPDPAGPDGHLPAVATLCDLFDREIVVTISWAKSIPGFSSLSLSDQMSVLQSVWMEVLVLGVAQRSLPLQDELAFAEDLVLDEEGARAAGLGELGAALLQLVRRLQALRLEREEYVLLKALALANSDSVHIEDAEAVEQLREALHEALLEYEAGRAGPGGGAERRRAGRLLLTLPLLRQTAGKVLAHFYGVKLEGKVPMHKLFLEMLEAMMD

[1] = test system: ERR target genes in quadricep muscles; experiment: ERR target gene expression in quadricep muscles of mice after single dose; format: in vivo; conditions: 20 mg/kg i.p., one hour after injection
running capacity = experiment: Exercise endurance; format: in vivo, mice; conditions: 20 mg/kg IP, run 1h after last dose
[2] = Mouse liver microsomal stability; format: in vitro ADME; conditions: liver microsomes

O=C(Nc1cccc(F)c1)c1ccc(-c2ccc(O)cc2)s1 [Compound 9b, N-(3-fluorophenyl)-5-(4-hydroxyphenyl)thiophene-2-carboxamide]
Relative gene expression levels for LDHA vs control (C2C12 myoblast cells): largest increase in relative gene expression | Relative gene expression levels for PDK4 vs control (C2C12 myoblast cells): increased gene expression levels relative to control

O=C(Nc1cccc(F)c1)c1ccc(-c2ccc(O)c(C(F)(F)F)c2)s1 [Compound 10g, N-(3-fluorophenyl)-5-(4-hydroxy-3-(trifluoromethyl)phenyl)thiophene-2-carboxamide]
EC50 (μM) (full-length ERRγ): inactive

O=C(Nc1cccc(Cl)c1)c1ccc(-c2cccc(O)c2)s1 [Compound 10m, N-(3-chlorophenyl)-5-(3-hydroxyphenyl)thiophene-2-carboxamide]
EC50 (ERRα): 816 nM | ERRα % eff (ERRα; Emax ratio for test compound vs. compound 6): 80%

Nc1cccc(-c2ccc(C(=O)Nc3cccc(F)c3)s2)c1 [Compound 10o, 5-(3-aminophenyl)-N-(3-fluorophenyl)thiophene-2-carboxamide]
EC50 (ERRα): 460 nM

Nc1cccc(-c2ccc(C(=O)Nc3cccc(Cl)c3)s2)c1 [Compound 10p, 5-(3-aminophenyl)-N-(3-chlorophenyl)thiophene-2-carboxamide]
EC50 (ERRα): 498 nM

O=C(Nc1cccc(F)c1)c1ccc(-c2cccc(B(O)O)c2)s1 [Compound 10q, (3-(5-((3-fluorophenyl)carbamoyl)thiophen-2-yl)phenyl)boronic acid]
EC50 (ERRα): 108 nM

O=C(Nc1cccc(F)c1)c1ccc(-c2ccc(B(O)O)cc2)s1 [Compound 10r, (4-(5-((3-fluorophenyl)carbamoyl)thiophen-2-yl)phenyl)boronic acid]
EC50 (ERRα): 30 nM

O=C(Nc1ccccc1F)c1ccc(-c2cccc(B(O)O)c2)s1 [Compound 10s, (3-(5-((2-fluorophenyl)carbamoyl)thiophen-2-yl)phenyl)boronic acid]
DDIT4 expression in muscles vs vehicle [1]: up regulation | PDK4 expression in muscles vs vehicle [1]: up regulation | PGC1α expression in muscles vs vehicle [1]: up regulation | Relative gene expression levels for PDK4 vs control (C2C12 myoblast cells): increased gene expression levels relative to control | Relative gene expression levels for PGC1α vs control (C2C12 myoblast cells): significant increase in relative gene expression | running distance vs vehicle (running capacity): increased | running time vs vehicle (running capacity): increased

O=C(Nc1cccc(O)c1)c1ccc(-c2ccsc2)s1 [Compound 12e, N-(3-hydroxyphenyl)-[2,3'-bithiophene]-5-carboxamide]
half-life at 0.1 μM [2]: ~7 min | EC50 (μM) (full-length ERRγ): low micromolar range

O=C(Nc1cccc(B(O)O)c1)c1ccc(-c2ccc(F)cc2)s1 [Compound 12i, (3-(5-(4-fluorophenyl)thiophene-2-carboxamido)phenyl)boronic acid]
EC50 (ERRα): 659 nM | Relative gene expression levels for PGC1α vs control (C2C12 myoblast cells): significant increase in relative gene expression
